Holding throughout (type): biochemical
The target of one test is T1, cathepsin L (Rattus norvegicus, UniProt P07154).
T1 construct: extracted from a rat liver and completely purified; from tissue; host or cells: rat liver
The experiment in a line: Determination of inhibition rate against cathepsin L. Conditions: for B/L: IC50 against cathepsin B divided by IC50 against cathepsin L; for pIC50: cathepsin L from rat liver, substrate Z-Phe-Arg-MCA, pH 5.5, 30° C, 10 minutes. The procedure: (§1) Determination of inhibition rate against cathepsin L, B and H […]
(§2) Each cathepsin was diluted with a diluent (0.1% Brij 35) to adjust its concentration to 0.3 U (0.1 U: a concentration at which 1.0 nmol of MCA is released per minute at 37° C.). To 500 μl of this solution, were added 250 μl of an activator/buffer (340 mM sodium acetate, 60 mM acetic acid, 4 mM disodium EDTA; pH 5.5). After the mixture was incubated for 1 minute at 30° C., the sample solution of the predetermined concentration and […] of a substrate solution were added to conduct a reaction for 10 minutes.

The target in a further test is T2, cathepsin B (Rattus norvegicus, UniProt P00787).
T2 construct: extracted from a rat liver and completely purified; from tissue; host or cells: rat liver
Put plainly: Determination of inhibition rate against cathepsin B. Conditions: cathepsin B from rat liver; substrate Z-Arg-Arg-MCA; pH 5.5; 30° C; 10 minutes. As for the experimental part: as §1, §2

The next test has as its target T3, cathepsin H (Homo sapiens, UniProt P09668).
T3 construct: purchased Sigma Co
T3 sequence (P09668 98-335): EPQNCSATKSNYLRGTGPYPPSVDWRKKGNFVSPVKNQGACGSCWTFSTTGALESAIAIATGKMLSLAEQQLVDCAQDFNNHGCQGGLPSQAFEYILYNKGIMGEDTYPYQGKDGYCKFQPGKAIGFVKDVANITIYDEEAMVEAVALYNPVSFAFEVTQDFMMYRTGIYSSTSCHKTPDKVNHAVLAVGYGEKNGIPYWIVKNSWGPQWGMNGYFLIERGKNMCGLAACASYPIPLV
Put plainly: Determination of inhibition rate against cathepsin H. Conditions: purified cathepsin H (Sigma Co.); substrate Arg-MCA; pH 5.5; 30° C; 10 minutes. As for the experimental part: Determination of inhibition rate against cathepsin L, B and H
A purified product was purchased from Sigma Co. and used as cathepsin H, and as a substrate thereof, Arg-MCA was used.
as §2

Structures are written as SMILES. pIC50: −log10 of the molar value. Structures can show the parent of a compound that is named as a salt.

T2 sequence (P00787 129-333 limits assumed): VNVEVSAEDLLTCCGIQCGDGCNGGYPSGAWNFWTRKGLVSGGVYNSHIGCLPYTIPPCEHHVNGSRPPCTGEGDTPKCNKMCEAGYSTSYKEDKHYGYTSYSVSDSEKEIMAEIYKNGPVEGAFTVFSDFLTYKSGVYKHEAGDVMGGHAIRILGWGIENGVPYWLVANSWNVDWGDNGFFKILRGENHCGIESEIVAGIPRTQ
T2 sequence (P00787 80-126 limits assumed): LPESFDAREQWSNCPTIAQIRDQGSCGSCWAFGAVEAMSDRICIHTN
T1 sequence (P07154 114-288 limits assumed): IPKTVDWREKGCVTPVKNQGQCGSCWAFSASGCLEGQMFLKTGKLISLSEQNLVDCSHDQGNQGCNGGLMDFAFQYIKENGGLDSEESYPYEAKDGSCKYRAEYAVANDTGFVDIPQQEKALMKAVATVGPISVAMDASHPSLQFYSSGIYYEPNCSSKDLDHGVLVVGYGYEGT
T1 sequence (P07154 291-334 limits assumed): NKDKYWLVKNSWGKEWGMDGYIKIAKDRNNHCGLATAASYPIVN

As to `NCCCC[C@H](NC(=O)[C@H]1O[C@@H]1C(=O)NCCc1ccccc1)C(=O)Nc1cccc2ccccc12` [Example 2, Nα-[L-3-trans-(2-phenylethylcarbamoyl)oxirane-2-carbonyl]-L-lysine-1-naphthylamide hydrochloride], the B/L on cathepsin L is reported as above 285. For the same compound, the pIC50 against cathepsin L is 7.46; against cathepsin B, below 5.00; against cathepsin H it was below 5.00.
Regarding `NCCCC[C@H](NC(=O)[C@H]1O[C@@H]1C(=O)N[C@@H](Cc1ccccc1)C(N)=O)C(=O)Nc1cccc2ccccc12` [Example 14, Nα-{L-3-trans-[(S)-1-carbamoyl-2-phenylethylcarbamoyl]oxirane-2-carbonyl}-L-lysine-1-naphthylamide hydrochloride], the B/L at cathepsin L was above 667. Also, the pIC50 at cathepsin L is 7.82; on cathepsin B, below 5.00; against cathepsin H it was below 5.00.
`NCCCC[C@H](NC(=O)[C@H]1O[C@@H]1C(=O)Nc1cccc2ccccc12)C(=O)Nc1cccc2ccccc12` [Example 30, Nα-[L-3-trans-(1-naphthylcarbamoyl)oxirane-2-carbonyl]-L-lysine-1-naphthylamide hydrochloride] registered a B/L on cathepsin L of 94.4. For the same compound, the figures for the pIC50 at cathepsin L, against cathepsin B and against cathepsin H were 7.14, 5.17 and 5.22, respectively.
On the same counts, the results for `CC(=O)NCCCC[C@H](NC(=O)[C@H]1O[C@@H]1C(=O)N[C@@H](Cc1ccccc1)C(=O)NCCc1ccccc1)C(=O)Nc1cccc2ccccc12` [Example 32, Nα-{L-3-trans-[(S)-1-(2-phenylethylcarbamoyl)-2-phenylethylcarbamoyl]oxirane-2-carbonyl}-Nε-acetyl-L-lysine-1-naphthylamide] are 17500, 10.40, 5.15 and 5.32.
Regarding `NCCCC[C@H](NC(=O)[C@H]1O[C@@H]1C(=O)N[C@H](Cc1ccccc1)C(=O)NCCc1ccccc1)C(=O)Nc1cccc2ccccc12` [Example 53, Nα-{L-3-trans-[(R)-1-(2-phenylethylcarbamoyl)-2-phenylethylcarbamoyl]oxirane-2-carbonyl}-L-lysine-1-naphthylamide hydrochloride], the B/L at cathepsin L is given as 333. Moreover, the pIC50 is 7.05 against cathepsin L and 4.52 on cathepsin B.
On the same counts, the results for `NCCCC[C@H](NC(=O)[C@H]1O[C@@H]1C(=O)N[C@@H](Cc1ccccc1)C(=O)NCCc1ccccc1)C(=O)N1CCc2ccccc21` [Example 47, Nα-{L-3-trans-[(S)-1-(2-phenylethylcarbamoyl)-2-phenylethylcarbamoyl]oxirane-2-carbonyl}-L-lysine indolinylamide hydrochloride] are 150000, 10.00 and 4.82.
On the same counts, the results for `NCCCC[C@H](NC(=O)[C@H]1O[C@@H]1C(=O)N[C@@H](Cc1ccccc1)C(N)=O)C(=O)N1CCc2ccccc21` [Example 45, Nα-{L-3-trans-[(S)-1-carbamoyl-2-phenylethylcarbamoyl]oxirane-2-carbonyl}-L-lysine indolinylamide hydrochloride] are 571, 7.15 and 4.40.
Regarding `NCCCC[C@H](NC(=O)[C@H]1O[C@@H]1C(=O)N[C@@H](Cc1ccccc1)C(=O)NCc1ccccc1)C(=O)Nc1cccc2ccccc12` [Example 26, Nα-{L-3-trans-[(S)-1-benzylcarbamoyl-2-phenylethylcarbamoyl]oxirane-2-carbonyl}-L-lysine-1-naphthylamide hydrochloride], on cathepsin L, the B/L is listed as 7500. For the same compound, the negative logarithm of the IC50 (pIC50) against cathepsin L was 9.40; against cathepsin B, 5.52; against cathepsin H, 5.49.

The values above are taken from US5883121A, “Epoxysuccinamide derivative or salt thereof, and medicine comprising the same” (Taiho Pharmaceutical Co., Ltd., priority 1995, dated 1999).
